pIC50: −log10 of the molar value.
biological target: T1, recombinant hGYS1/GN1 protein (Homo sapiens, UniProt P13807); assay: GYS1 coupled enzyme assay (PK/LDH, NADH absorbance at 340 nm); format: biochemical; conditions: geometric mean of at least 2 assay runs on separate days; hGYS1/GN1 50 nM, Glucose-6-Phosphate 1 mM, UDP-Glucose 0.8 mM
T1 sequence (P13807 1-737): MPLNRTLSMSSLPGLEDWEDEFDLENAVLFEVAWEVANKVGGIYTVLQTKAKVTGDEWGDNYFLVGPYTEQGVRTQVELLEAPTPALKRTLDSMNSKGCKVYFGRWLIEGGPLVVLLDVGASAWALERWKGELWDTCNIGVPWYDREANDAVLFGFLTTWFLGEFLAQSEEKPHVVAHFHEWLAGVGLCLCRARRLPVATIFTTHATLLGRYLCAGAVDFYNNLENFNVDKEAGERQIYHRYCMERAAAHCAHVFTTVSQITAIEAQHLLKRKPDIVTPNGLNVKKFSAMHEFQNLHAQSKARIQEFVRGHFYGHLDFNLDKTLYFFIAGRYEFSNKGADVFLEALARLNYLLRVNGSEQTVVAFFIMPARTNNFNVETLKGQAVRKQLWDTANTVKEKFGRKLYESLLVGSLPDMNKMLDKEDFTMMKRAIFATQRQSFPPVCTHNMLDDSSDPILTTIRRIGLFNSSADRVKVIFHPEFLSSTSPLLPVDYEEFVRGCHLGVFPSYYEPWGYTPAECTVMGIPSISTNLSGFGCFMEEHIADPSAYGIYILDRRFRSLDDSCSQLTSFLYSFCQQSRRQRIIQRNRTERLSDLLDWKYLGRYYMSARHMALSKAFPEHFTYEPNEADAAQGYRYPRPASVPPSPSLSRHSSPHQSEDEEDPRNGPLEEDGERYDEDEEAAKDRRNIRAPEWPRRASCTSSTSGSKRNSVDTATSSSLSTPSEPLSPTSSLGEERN
T1 sequence (P46976 1-350 partner): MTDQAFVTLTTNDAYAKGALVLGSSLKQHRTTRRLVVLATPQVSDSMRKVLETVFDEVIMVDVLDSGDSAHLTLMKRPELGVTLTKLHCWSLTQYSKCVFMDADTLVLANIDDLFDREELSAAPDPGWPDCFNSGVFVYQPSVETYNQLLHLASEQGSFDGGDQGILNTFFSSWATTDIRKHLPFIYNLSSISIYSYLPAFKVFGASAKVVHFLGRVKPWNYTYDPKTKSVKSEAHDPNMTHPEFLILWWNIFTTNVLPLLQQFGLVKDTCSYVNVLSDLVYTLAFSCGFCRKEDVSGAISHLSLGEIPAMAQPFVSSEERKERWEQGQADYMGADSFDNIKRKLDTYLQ
Text: The GYS1 coupled enzyme assay is a kinetic biochemical assay that indirectly quantifies the rate of glycogen synthesis by coupling the conversion of GYS1 substrate UDP-glucose into UDP with downstream enzymatic reactions. UDP is released from UDP-glucose as glucose monomers are linked into the growing glycogen strand by GYS1. The coupled assay then proceeds with pyruvate kinase utilizing UDP and phospho(enol)pyruvate (PEP) to form pyruvate. Lactate dehydrogenase then converts pyruvate and NADH into lactate and NAD+. Oxidation of NADH to NAD+ can be measured continuously with a plate reader by quantifying the decrease in NADH absorbance at 340 nm over time.
Compounds that inhibit the hGYS1 enzyme and, subsequently, the downstream conversion of NADH to NAD+, were tested using assay ready plates (black, clear bottom 384 well plates) in a final DMSO reaction volume of 2.5% DMSO. The Assay Buffer contained 50 mM Tris pH 7.5, 2 mM MgCl2, and 100 mM KCl. Fresh stocks of BSA at a final concentration of 0.02% and TCEP at 1 mM were added before splitting buffer into hGYS1 buffer and substrate buffer. To the hGYS1 buffer, rabbit liver glycogen was added at a final concentration of 0.2% glycogen. Glucose-6-Phosphate was added at 1 mM, recombinant hGYS1/GN1 protein was added at 50 nM to the substrate buffer, phosphoenolpyruvate (PEP) was added at 2 mM, UDP-Glucose was added at 0.8 mM, NADH) was added at 0.6 mM, and Pyruvate Kinase/Lactate Dehydrogenase was added at 20 units/mL. The reaction was initiated by mixing hGYS1 buffer and substrate buffer at a 1:1 ratio. Both buffers were plated using a liquid dispensing device with hGYS1 buffer plated first followed by the substrate buffer. Plates were spun briefly to eliminate air bubbles and are immediately read in continuous mode at an absorbance of 340 nm, for 10 time points in one-minute increments, for a total of 10 minutes. The slope from these 10 time points was normalized to the positive and negative control wells. The duplicate % inhibition values are then averaged and fit to a Hill equation for dose response according to the Levenberg-Marquardt algorithm with the Hill equation maximum set to 100 and the minimum set to 0.
The results are shown in Table 2 below, which reports the IC50 of each compound. Unless otherwise specified, IC50 values are reported as the geometric mean of at least 2 assay runs on separate days. Each run represents the average of a technical replicate, where each compound was assayed twice in the same plate. As shown in the table below, the compounds of the present invention are potent inhibitors of human GYS1. A superscript “#” symbol in Table 2 indicates results from a single assay run.
Note that, in Table 2, the compounds are referred to by the corresponding Compound No. in Table 1, which is also referred to in the synthetic examples.

Compound | pIC50
O=C(N[C@@H](c1ccccc1)c1ccc(C2CC2)c(F)n1)[C@@H]1C[C@@H](F)CN1C(=O)COCCOCCNCCOCCOCCOCC(=O)N1C[C@H](F)C[C@H]1C(=O)N[C@@H](c1ccccc1)c1ccc(C2CC2)c(F)n1 [Compound 13, (2S,2′S,4R,4′R)-1,1′-(3,6,12,15,18-pentaoxa-9-azaicosanedioyl)bis(N-((S)-(5-cyclopropyl-6-fluoropyridin-2-yl)(phenyl)methyl)-4-fluoropyrrolidine-2-carboxamide)] | < 5.00
Cc1cn(CC(=O)N2C[C@H](F)C[C@H]2C(=O)N[C@@H](c2ccccc2)c2ccc(C3CC3)c(F)n2)c(=O)n(CCOCCn2c(=O)c(C)cn(CC(=O)N3C[C@H](F)C[C@H]3C(=O)N[C@@H](c3ccccc3)c3ccc(C4CC4)c(F)n3)c2=O)c1=O [Compound 14, (2S,2′S,4R,4′R)-1,1′-(2,2′-((oxybis(ethane-2,1-diyl))bis(5-methyl-2,4-dioxo-3,4-dihydropyrimidine-3,1(2H)-diyl))bis(acetyl))bis(N-((S)-(5-cyclopropyl-6-fluoropyridin-2-yl)(phenyl)methyl)-4-fluoropyrrolidine-2-carboxamide)] | 8.31
Cc1cn(CC(=O)N2C[C@H](F)C[C@H]2C(=O)N[C@@H](c2ccccc2)c2ccc(C3CC3)c(F)n2)c(=O)n(CCOCCOCCn2c(=O)c(C)cn(CC(=O)N3C[C@H](F)C[C@H]3C(=O)N[C@@H](c3ccccc3)c3ccc(C4CC4)c(F)n3)c2=O)c1=O [Compound 15, (2S,2′S,4R,4′R)-1,1′-(2,2′-(((ethane-1,2-diylbis(oxy))bis(ethane-2,1-diyl))bis(5-methyl-2,4-dioxo-3,4-dihydropyrimidine-3,1(2H)-diyl))bis(acetyl))bis(N-((S)-(5-cyclopropyl-6-fluoropyridin-2-yl)(phenyl)methyl)-4-fluoropyrrolidine-2-carboxamide)] | 8.28
Cc1cn(CC(=O)N2C[C@H](F)C[C@H]2C(=O)N[C@@H](c2ccccc2)c2ccc(C3CC3)c(F)n2)c(=O)nc1OCCOc1nc(=O)n(CC(=O)N2C[C@H](F)C[C@H]2C(=O)N[C@@H](c2ccccc2)c2ccc(C3CC3)c(F)n2)cc1C [Compound 16, (2S,2′S,4R,4′R)-1,1′-(2,2′-((ethane-1,2-diylbis(oxy))bis(5-methyl-2-oxopyrimidine-4,1(2H)-diyl))bis(acetyl))bis(N-((S)-(5-cyclopropyl-6-fluoropyridin-2-yl)(phenyl)methyl)-4-fluoropyrrolidine-2-carboxamide)] | 7.64
CN(CCOCCOCCOCC(=O)N1C[C@H](F)C[C@H]1C(=O)N[C@@H](c1ccccc1)c1ccc(C2CC2)c(F)n1)CCOCCOCC(=O)N1C[C@H](F)C[C@H]1C(=O)N[C@@H](c1ccccc1)c1ccc(C2CC2)c(F)n1 [Compound 17, (2S,2′S,4R,4′R)-1,1′-(9-methyl-3,6,12,15,18-pentaoxa-9-azaicosanedioyl)bis(N-((S)-(5-cyclopropyl-6-fluoropyridin-2-yl)(phenyl)methyl)-4-fluoropyrrolidine-2-carboxamide)] | 8.12

Reference: patent US20260098025A1, “DIMERIC COMPOUNDS AS INHIBITORS OF GLYCOGEN SYNTHASE 1 (GYS1) AND METHODS OF USE THEREOF” (Maze Therapeutics, Inc., priority 2022, published 2026)
